Assay results from PubChem BioAssay AID328 (DTP/NCI, 2004).
Several values for one entry are separate records, joined by “and”; a condition that tells them apart may be missing. Identical values can stand only once. Inconclusive results and toxic doses are left out.

System: BDF1 mice, P388 leukemia ip, median survival T/C
Test: NCI In Vivo Anticancer Drug Screen. Data for tumor model P388 Leukemia (intraperitoneal) in B6D2F1 (BDF1) mice
Conditions: endpoint: median survival time, higher = longer survival
Outline: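 Mice carrying the transplantable tumour receive compound or vehicle. Survival is followed in each arm, and the treated measure is divided by the vehicle measure.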

[1] = dose: 50.0 mg/kg/injection, schedule: Q01DX009 (ip), vehicle: water
[2] = dose: 50.0 mg/kg/injection, schedule: Q01DX005 (ip), vehicle: saline with Tween-80
[3] = dose: 100.0 mg/kg/injection, schedule: Q01DX005 (ip), vehicle: saline with Tween-80
[4] = dose: 100.0 mg/kg/injection, schedule: Q01DX001 (ip), vehicle: saline with Tween-80
[5] = dose: 200.0 mg/kg/injection, schedule: Q01DX001 (ip), vehicle: saline with Tween-80
[6] = dose: 25.0 mg/kg/injection, schedule: Q01DX009 (ip), vehicle: saline with Tween-80
[7] = dose: 100.0 mg/kg/injection, schedule: Q01DX009 (ip), vehicle: saline with Tween-80
[8] = dose: 200.0 mg/kg/injection, schedule: Q01DX009 (ip), vehicle: saline with Tween-80
[9] = dose: 400.0 mg/kg/injection, schedule: Q01DX009 (ip), vehicle: saline with Tween-80
[10] = dose: 50.0 mg/kg/injection, schedule: Q04DX003 (ip), vehicle: saline with Tween-80
[11] = dose: 100.0 mg/kg/injection, schedule: Q01DX009 (ip), vehicle: saline
[12] = dose: 100.0 mg/kg/injection, schedule: Q04DX003 (ip), vehicle: saline with Tween-80
[13] = dose: 200.0 mg/kg/injection, schedule: Q04DX003 (ip), vehicle: saline with Tween-80
[14] = dose: 400.0 mg/kg/injection, schedule: Q04DX003 (ip), vehicle: saline with Tween-80
[15] = dose: 50.0 mg/kg/injection, schedule: Q01DX009 (ip), vehicle: saline with Tween-80
[16] = dose: 100.0 mg/kg/injection, schedule: Q01DX009 (ip), vehicle: Klucel (hydroxypropylcellulose) (HPC)
[17] = dose: 200.0 mg/kg/injection, schedule: Q01DX009 (ip), vehicle: Klucel (hydroxypropylcellulose) (HPC)

Compound: Cc1c[nH]c2nccnc12
- T/C (dose: 1.56 mg/kg/injection, schedule: Q01DX009 (ip), vehicle: water): 103 % of control
- T/C (dose: 3.12 mg/kg/injection, schedule: Q01DX009 (ip), vehicle: water): 94 % of control and 105 % of control
- T/C (dose: 6.25 mg/kg/injection, schedule: Q01DX009 (ip), vehicle: water): 93 % of control and 94 % of control and 101 % of control
- T/C (dose: 12.5 mg/kg/injection, schedule: Q01DX009 (ip), vehicle: water): 91 % of control and 106 % of control
- T/C [1]: 90 % of control and 99 % of control
- T/C (dose: 50.0 mg/kg/injection, schedule: Q04DX003 (ip), vehicle: water): 94 % of control
- T/C (dose: 100.0 mg/kg/injection, schedule: Q01DX009 (ip), vehicle: water): 89 % of control and 106 % of control
- T/C (dose: 100.0 mg/kg/injection, schedule: Q04DX003 (ip), vehicle: water): 94 % of control
- T/C (dose: 200.0 mg/kg/injection, schedule: Q01DX009 (ip), vehicle: water): 108 % of control
- T/C (dose: 200.0 mg/kg/injection, schedule: Q04DX003 (ip), vehicle: water): 103 % of control
- T/C (dose: 400.0 mg/kg/injection, schedule: Q01DX009 (ip), vehicle: water): 99 % of control
- T/C (dose: 400.0 mg/kg/injection, schedule: Q04DX003 (ip), vehicle: water): 92 % of control

Compound: CC(=O)OCC(=O)[C@@]1(O)CC[C@H]2[C@@H]3CCC4=CC(=O)CC[C@]4(C)[C@@]3(Cl)[C@@H](O)C[C@@]21C
- T/C (dose: 18.7 mg/kg/injection, schedule: Q04DX003 (ip), vehicle: saline with Tween-80): 109 % of control
- T/C (dose: 37.5 mg/kg/injection, schedule: Q04DX003 (ip), vehicle: saline with Tween-80): 109 % of control
- T/C (dose: 66.0 mg/kg/injection, schedule: Q04DX003 (ip), vehicle: saline with Tween-80): 113 % of control
- T/C (dose: 75.0 mg/kg/injection, schedule: Q04DX003 (ip), vehicle: saline with Tween-80): 118 % of control
- T/C (dose: 150.0 mg/kg/injection, schedule: Q04DX003 (ip), vehicle: saline with Tween-80): 118 % of control

Compound: C[C@@H](O)[C@@H](O)c1cnc2nc(N)[nH]c(=O)c2n1
- T/C [2]: 100 % of control
- T/C [3]: 91 % of control
- T/C (dose: 200.0 mg/kg/injection, schedule: Q01DX005 (ip), vehicle: saline with Tween-80): 115 % of control

Compound: O=P(NC12CC3CC(CC(C3)C1)C2)(N1CC1)N1CC1
- T/C (dose: 2.2 mg/kg/injection, schedule: Q01DX009 (ip), vehicle: Klucel (hydroxypropylcellulose) (HPC)): 120 % of control
- T/C (dose: 4.4 mg/kg/injection, schedule: Q01DX009 (ip), vehicle: Klucel (hydroxypropylcellulose) (HPC)): 183 % of control
- T/C (dose: 6.6 mg/kg/injection, schedule: Q01DX009 (ip), vehicle: Klucel (hydroxypropylcellulose) (HPC)): 238 % of control and 154 % of control and 211 % of control
- T/C (dose: 10.0 mg/kg/injection, schedule: Q01DX009 (ip), vehicle: Klucel (hydroxypropylcellulose) (HPC)): 244 % of control and 88 % of control and 122 % of control
- T/C (dose: 15.0 mg/kg/injection, schedule: Q01DX009 (ip), vehicle: Klucel (hydroxypropylcellulose) (HPC)): 105 % of control

Compound: CNC(=S)N(C)C
- T/C (dose: 50.0 mg/kg/injection, schedule: Q01DX001 (ip), vehicle: saline): 95 % of control
- T/C (dose: 100.0 mg/kg/injection, schedule: Q01DX001 (ip), vehicle: saline): 103 % of control and 104 % of control
- T/C (dose: 200.0 mg/kg/injection, schedule: Q01DX001 (ip), vehicle: saline): 95 % of control and 104 % of control
- T/C (dose: 400.0 mg/kg/injection, schedule: Q01DX001 (ip), vehicle: saline): 91 % of control

Compound: CN(CCCN(C)N=Nc1ccccc1C(=O)O)N=Nc1ccccc1C(=O)O
- T/C (dose: 100.0 mg/kg/injection, schedule: Q04DX003 (ip), vehicle: saline): 92 % of control
- T/C (dose: 200.0 mg/kg/injection, schedule: Q04DX003 (ip), vehicle: saline): 88 % of control
- T/C (dose: 400.0 mg/kg/injection, schedule: Q04DX003 (ip), vehicle: saline): 92 % of control

Compound: CS(=O)(=O)Nc1cc(Cl)c(NS(C)(=O)=O)c(Cl)c1Cl
- T/C [4]: 100 % of control
- T/C [5]: 103 % of control
- T/C (dose: 400.0 mg/kg/injection, schedule: Q01DX001 (ip), vehicle: saline with Tween-80): 100 % of control

Compound: N#Cc1nnc2cc[nH]n2c1=O
- T/C (dose: 100.0 mg/kg/injection, schedule: Q04DX002 (ip), vehicle: saline with Tween-80): 100 % of control
- T/C (dose: 200.0 mg/kg/injection, schedule: Q04DX002 (ip), vehicle: saline with Tween-80): 103 % of control
- T/C (dose: 400.0 mg/kg/injection, schedule: Q04DX002 (ip), vehicle: saline with Tween-80): 109 % of control

Compound: CC(=O)Nc1ccc(S(=O)(=O)Nc2ccc([N+](=O)[O-])cc2)cc1
- T/C [6]: 104 % of control
- T/C [1]: 95 % of control
- T/C [7]: 97 % of control
- T/C [8]: 97 % of control
- T/C [9]: 106 % of control

Compound: CCCCCCCCCC(O)CCCCC (centres undefined)
- T/C (dose: 20.0 mg/kg/injection, schedule: Q01DX009 (ip), vehicle: saline with Tween-80): 100 % of control
- T/C (dose: 25.0 mg/kg/injection, schedule: Q04DX003 (ip), vehicle: saline with Tween-80): 95 % of control
- T/C (dose: 45.0 mg/kg/injection, schedule: Q01DX009 (ip), vehicle: saline with Tween-80): 100 % of control
- T/C [10]: 108 % of control
- T/C (dose: 90.0 mg/kg/injection, schedule: Q01DX009 (ip), vehicle: saline with Tween-80): 104 % of control
- T/C [7]: 113 % of control
- T/C [11]: 170 % of control
- T/C [12]: 100 % of control
- T/C (dose: 135.0 mg/kg/injection, schedule: Q01DX009 (ip), vehicle: saline with Tween-80): 95 % of control
- T/C [8]: 108 % of control
- T/C [13]: 95 % of control
- T/C [9]: 113 % of control
- T/C [14]: 100 % of control

Compound: CC(C)(C)CC(C)(C)c1ccc(O)cc1O
- T/C [6]: 120 % of control
- T/C [15]: 95 % of control

Compound: NNC(=S)N/N=C/c1ccc([N+](=O)[O-])s1
- T/C [16]: 110 % of control
- T/C [17]: 112 % of control

Compound: CN(C)C(=S)/N=c1\ss/c(=N\C(=S)N(C)C)n1-c1ccccc1
- T/C [15]: 100 % of control
- T/C [7]: 95 % of control
- T/C [8]: 95 % of control

Compound: OCCOc1c(Cl)c(Cl)c(Cl)c(Cl)c1Cl
- T/C [6]: 100 % of control
- T/C [15]: 104 % of control
- T/C [10]: 100 % of control
- T/C [7]: 118 % of control
- T/C [12]: 100 % of control

Compound: COC(=O)c1cc(=O)nc(NN=C(C)C)s1
- T/C [2]: 91 % of control
- T/C [3]: 100 % of control

Compound: CN(C)N=Nc1ccccc1Cl
- T/C [6]: 119 % of control
- T/C [7]: 157 % of control

Compound: COc1ccc(CNCC(OC)OC)cc1O
- T/C [4]: 99 % of control
- T/C [5]: 102 % of control

Compound: Cc1ccc(NC(=O)COc2cc(Cl)c(Cl)cc2Cl)cc1C
- T/C [12]: 90 % of control
- T/C [13]: 90 % of control
- T/C [14]: 86 % of control

Compound: CNC1C(OC2C(OC3C(O)C(O)C(O)C(O)C3O)OC(C)C2(O)CO)OC(CO)C(O)C1O (centres undefined) (tested in a mixture with another compound)
- T/C [11]: 100 % of control
- T/C (dose: 200.0 mg/kg/injection, schedule: Q01DX009 (ip), vehicle: saline): 100 % of control
- T/C (dose: 400.0 mg/kg/injection, schedule: Q01DX009 (ip), vehicle: saline): 100 % of control

Compound: COc1ccc2nccc(C=O)c2c1
- T/C [7]: 116 % of control
- T/C [8]: 114 % of control
- T/C [9]: 117 % of control

Compound: Cc1ccc(C)c2c1[nH]c1c(C)c3ccncc3c(C)c12
- T/C (dose: 25.0 mg/kg/injection, schedule: Q01DX001 (ip), vehicle: saline with Tween-80): 101 % of control
- T/C (dose: 50.0 mg/kg/injection, schedule: Q01DX001 (ip), vehicle: saline with Tween-80): 91 % of control
- T/C [4]: 96 % of control

Compound: Clc1cccc(Cl)c1Br
- T/C (dose: 50.0 mg/kg/injection, schedule: Q04DX003 (ip), vehicle: gum acacia): 95 % of control
- T/C [16]: 100 % of control
- T/C (dose: 100.0 mg/kg/injection, schedule: Q04DX003 (ip), vehicle: Klucel (hydroxypropylcellulose) (HPC)): 88 % of control
- T/C (dose: 100.0 mg/kg/injection, schedule: Q04DX003 (ip), vehicle: gum acacia): 108 % of control
- T/C [17]: 109 % of control
- T/C (dose: 200.0 mg/kg/injection, schedule: Q04DX003 (ip), vehicle: gum acacia): 100 % of control
- T/C (dose: 400.0 mg/kg/injection, schedule: Q01DX009 (ip), vehicle: Klucel (hydroxypropylcellulose) (HPC)): 90 % of control
- T/C (dose: 400.0 mg/kg/injection, schedule: Q04DX003 (ip), vehicle: Klucel (hydroxypropylcellulose) (HPC)): 115 % of control
